Results reported in patent US10864190B2 (CeMM—Forschungszentrum für Molekulare Medizin GmbH, priority 2015, dated 2020).

Experiments:
LNCaP cells = test: Dose-response matrix, viability of LNCaP cells; assay type: cell-based; conditions: 3 days, antiandrogen in combination with phenprocoumon
Description: LNCaP (ATCC, Manassas, Va., USA, CRL-1740) and PC-3 (ATCC, CRL-1435) cells were grown in RPMI-1640 supplemented with 10% fetal bovine serum (Thermo Fisher Scientific) and 1% penicillin/streptomycin (Sigma-Aldrich). For steroid-deprived experiments, LNCaP cells were cultured in RPMI-1640 supplemented with 10% charcoal stripped fetal bovine serum (Thermo Fisher Scientific) and 1% penicillin/streptomycin (Sigma-Aldrich).
CLOUD drugs and combinations thereof were transferred on 384-well plates using an acoustic liquid handler (Echo, Labcyte, Sunnyvale, Calif., USA) and 5,000 cells/well were dispensed on top of the drugs using a dispenser (Thermo Fisher Scientific) for a total of 50 μl/well. Viability was measured after 72 hours using CellTiter-Glo (Promega, Fitchburg, Wis., USA) in a multilabel plate reader (EnVision, PekinElmer, Waltham, Mass., USA). Signal was then normalized to negative (DMSO) and positive (10 μM dasatinib) controls and set between 0 and 100. […] Drug combinations were analyzed according to the Bliss independence model (Bliss C I, Ann Appl Biol, 1939, 26:585-615). Briefly, the effect of the combination of drug A and drug B can be predicted to be C=A+B−A*B where A and B are the effects of the single drugs expressed as fractional inhibition between 0 and 1. A deviation of the experimental value from the Bliss prediction was calculated. […]

γ-carboxylated AR = test: γ-carboxylation in LNCaP cells (western blotting, immunoprecipitation with anti-γ-carboxyglutamyl antibody); assay type: cell-based; conditions: LNCaP lysates, increasing amounts of phenprocoumon
Description: Cells were lysed in RIPA buffer supplemented with a cocktail of protease inhibitors (Roche). Lysates were resolved by sodium dodecyl sulfate-polyacrylamide gel electrophoresis. AR (#5153) and GAPDH (#5174) antibodies were purchased from Cell Signaling Technology (Danvers, Mass., USA). αTUB antibody (ab7291) was purchased from Abcam (Cambridge, UK). Anti-γ-carboxyglutamyl antibody (REF 3570) was purchased from Sekisui Diagnostics (Lexington, Mass., USA).
(§1) Cells were lysed in IP buffer (50 mM Tris pH 8, 150 mM NaCl, 1% Igepal) supplemented with a cocktail of protease inhibitors (Roche). Immunoprecipitations were performed at 4° C. and using Dynabeads Protein G (Thermo Fisher Scientific). Lysates were precleared with beads for 30 minutes, incubated with antibodies overnight (1 μg antibody was used for 50 μg protein) and immunoprecipitated for 2 hours. After washing, immunoprecipitated proteins were eluted by either boiling in Laemmli buffer or using 50 mM glycine pH 2.8.

androgen receptor (AR) [1] = target: T1, androgen receptor (AR) (Homo sapiens, UniProt P10275, T878A); test: Cellular thermal shift assay (CETSA); assay type: binding
T1 construct: AR immunoprecipitated from LNCaP cells treated with either DMSO or phenprocoumon; host or cells: LNCaP
Description: LNCaP cells were treated with DMSO or 35 μM PPC for 2 days and then harvested maintaining a constant concentration of PPC in all subsequent handling buffers. Otherwise, lysates were directly treated with the drug as already described (Martinez Molina D et al., Science, 2013, 341:84-7).

androgen receptor (AR) [2] = test: 2D difference gel electrophoresis (DIGE) of immunoprecipitated AR; assay type: cell-based; conditions: AR immunoprecipitated from LNCaP cells, versus DMSO
Description: as §1
IP lysates eluted with glycine buffer were used for 2D difference gel electrophoresis (DIGE). […] Rehydration and isoelectric focusing on IPG strips (ReadyStrip IPG Strips, 11 cm, pH 3-10, non-linear (BioRad)) was followed by SDS-PAGE on gradient gels (Criterion, Any kD, BioRad) and detection with a Typhoon fluorescence scanner at the recommended excitation and emission wavelengths for G-Dye200 and G. Images were analyzed using Delta2D 4.3 software (Decodon, Greifswald, Germany).
The inventors then assessed whether phenprocoumon treatment could otherwise modify AR and analyzed the migration pattern of the protein by means of 2D gel electrophoresis (see FIG. 13H).

[3] = test system: AR signaling canonical targets (KLK3, TMPRSS2, KLK2) and AR; test: RT-qPCR of AR and canonical targets of AR signaling in LNCaP cells; assay type: cell-based; conditions: 24 hours
Description: The RNeasy kit (Qiagen, Venlo, Netherlands) was used to extract RNA. cDNA was produced and reverse transcription quantitative polymerase chain reaction performed using the High Capacity cDNA Reverse Transcription kit and the SYBR Green Master mix from Thermo Fisher Scientific. Reverse transcription quantitative polymerase chain reaction was performed on a LightCycler 480 (Roche, Basel, Switzerland).

T1 sequence (P10275 whole entry T878A): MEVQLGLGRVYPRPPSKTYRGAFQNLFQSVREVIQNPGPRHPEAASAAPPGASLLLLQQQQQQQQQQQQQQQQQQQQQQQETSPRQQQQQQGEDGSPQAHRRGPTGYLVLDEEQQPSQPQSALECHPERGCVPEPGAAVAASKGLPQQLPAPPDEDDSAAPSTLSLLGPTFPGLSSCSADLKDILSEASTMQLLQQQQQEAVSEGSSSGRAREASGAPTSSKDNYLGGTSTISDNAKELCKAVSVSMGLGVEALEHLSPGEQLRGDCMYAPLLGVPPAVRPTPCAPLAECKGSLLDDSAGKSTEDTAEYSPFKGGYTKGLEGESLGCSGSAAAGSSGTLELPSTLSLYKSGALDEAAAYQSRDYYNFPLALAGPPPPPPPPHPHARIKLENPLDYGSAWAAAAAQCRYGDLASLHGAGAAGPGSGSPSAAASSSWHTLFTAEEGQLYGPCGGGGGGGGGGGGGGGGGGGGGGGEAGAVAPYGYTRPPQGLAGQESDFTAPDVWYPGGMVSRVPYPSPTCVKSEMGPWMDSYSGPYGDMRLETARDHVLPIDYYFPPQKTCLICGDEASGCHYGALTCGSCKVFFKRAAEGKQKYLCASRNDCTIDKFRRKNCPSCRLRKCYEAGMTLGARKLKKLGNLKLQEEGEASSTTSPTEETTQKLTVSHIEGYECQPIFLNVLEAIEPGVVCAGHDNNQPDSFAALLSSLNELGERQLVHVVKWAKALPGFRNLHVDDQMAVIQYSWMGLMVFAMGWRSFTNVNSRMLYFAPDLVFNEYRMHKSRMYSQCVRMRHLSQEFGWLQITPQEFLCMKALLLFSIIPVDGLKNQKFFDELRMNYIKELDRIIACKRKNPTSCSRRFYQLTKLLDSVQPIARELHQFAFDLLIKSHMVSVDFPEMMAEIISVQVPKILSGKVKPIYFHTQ

thermal stability of AR (androgen receptor (AR) [1]; LNCaP cell lysates treated with 100 μM PPC for 30 min, no pretreatment)	thermal stability of AR (androgen receptor (AR) [1]; LNCaP cells treated with 35 μM PPC for 2 days)	isoelectric point of AR (migration pattern) (androgen receptor (AR) [2])	Compound	synergy in combination with phenprocoumon (LNCaP cells)	amount of AR immunoprecipitated with γ-carboxylation-specific antibody (γ-carboxylated AR)	effect on induction of AR signaling (KLK3, KLK2) by R1881 ([3]; 10 nM R1881 ± 35 μM PPC)	expression of AR signaling canonical targets KLK3, TMPRSS2 and KLK2 ([3]; steroid-deprived medium, 15 μM flutamide, 35 μM PPC)
–	–	–	CNC(=O)c1ccc(N2C(=S)N(c3ccc(C#N)c(C(F)(F)F)c3)C(=O)C2(C)C)cc1F [enzalutamide]	synergistic interaction with phenprocoumon, albeit to a lower extent compared to flutamide	–	–	–
did not stabilize AR	affects the thermal stability of AR	migrated at a higher isoelectric point	CCC(c1ccccc1)c1c(O)c2ccccc2oc1=O (centres unmarked) [phenprocoumon]	–	reduced the amount of immunopreciptated protein in a dose-dependent manner	did not interfere with the induction of AR signaling	did not affect the expression of these genes
–	–	–	CC1(C)NC(=O)N(c2ccc([N+](=O)[O-])c(C(F)(F)F)c2)C1=O [nilutamide]	synergistic interaction with phenprocoumon, albeit to a lower extent compared to flutamide	–	–	–
